Measurements as given in patent US11787769B2 (priority 2019, dated 2023).
Like-named read-outs stand apart in the source and are kept apart here.

Experiments:
Test in all cases: microbe, parasite or virus in culture
[1] = tested on: influenza A virus (HA of H5N1, Goose/Qinghai/59/05); type: cell-based; conditions: for inhibition at 12.5 µM: H5N1, A549, 12.5 μM, read-out: H5N1 pseudotype assay % inhibition at 12.5 μM
[2] = tested on: PR8-PB2-Gluc, influenza A/Puerto Rico/8/1934 (PR8) H1N1 virus; type: cell-based; conditions: read-out: EC50 (nM), antiviral activity in the infectious IAV
[3] = tested on: PR8-NS1-Gluc virus; type: cell-based, influenza A PR8
[4] = Influenza A virus, H5N1, A549, read-out: H5N1 pseudotype assay EC50 (μM)
[5] = Influenza A virus, PR8, MDCK, 48 h
[6] = read-out: H5N1 pseudotype assay EC50

Compound | inhibition at 12.5 µM ([1]; Influenza A virus) [%] | EC50 ([2]; Influenza A virus, MDCK) [nM] | further results
CC(C)N1CCC(NC(=O)c2ccccc2C(F)(F)F)CC1 [Compound 3, N-(1-Isopropylpiperidin-4-yl)-2-(trifluoromethyl)benzamide] | 31 |  | 
CC(C)N1CCC(NC(=O)c2ccc([N+](=O)[O-])cc2Cl)CC1 [Compound 4, 2-Chloro-N-(1-isopropylpiperidin-4-yl)-4-nitrobenzamide] | 97 | 211 ± 43 | EC50 [1, 4]: 0.72 ± 0.09 µM
CC(C)N1CCN(C(=O)c2c(Cl)cccc2Cl)CC1 [Compound 25, (2,6-Dichlorophenyl)-(4-isopropylpiperazin-l-yl)methanone] |  |  | H5N1 pseudotype assay % inhibition at 12.5 μM [1]: 4%
CC(C)N1CCC(C)(NC(=O)c2c(Cl)cccc2Cl)CC1 [Compound 27, 2,6-Dichloro-N-(1-isopropyl-4-methylpiperidin-4-yl)benzamide] | 75 |  | 
CC(C)N1CC2C(C1)C2NC(=O)c1c(Cl)cccc1Cl (centres unmarked) [Compound 24, 2,6-Dichloro-N-(3-isopropyl-3-azabicyclo[3. 1.0]hexan-6-yl)benzamide] | 61 |  | 
CC(C)N1CCC(NC(=O)c2ncc(Cl)cc2Cl)CC1 [Compound 6, 3,5-Dichloro-N-(1-isopropylpiperidin-4-yl)picolinamide] | 39 |  | 
O=C(NC1CCN(C2COC2)CC1)c1c(Cl)cccc1Cl [Compound 15, 2,6-Dichloro-N-(1-(oxetan-3-yl)piperidin-4-yl)benzamide] | 7 |  | 
CC(C)(C)N1CCC(NC(=O)c2c(Cl)cccc2Cl)CC1 [Compound 13, N-(1-(tert-Butyl)piperidin-4-yl)-2,6-dichlorobenzamide] | 99 | 113 ± 18 | EC50 [1, 4]: 0.51 ± 0.04 µM
CC(C)N1CCC(NC(=O)c2ncccc2Cl)CC1 [Compound 8, 3-Chloro-N-(1-isopropylpiperidin-4-yl)picolinamide] | 40 |  | 
CCC(CC)O[C@@H]1C=C(C(=O)O)C[C@H](N)[C@H]1NC(C)=O [Oseltamivir carboxylate, reference compound] |  | 181 ± 69 | EC30 [3]: 160 nM; EC40 [3]: 229 nM; EC60 [3]: 441 nM; EC70 [3]: 629 nM; EC80 [3]: 972 nM; EC50 [3, 5]: 318 nM; EC90 [3, 5]: 1870 nM
CC(C)N1CCC(N(Cc2ccccc2)C(=O)c2c(Cl)cccc2Cl)CC1 [Compound 10, N-Benzyl-2,6-dichloro-N-(1-isopropylpiperidin-4-yl)benzamide] | 67 |  | H5N1 pseudotype assay % inhibition at 12.5 μM ([1]; 12.5 μM): 64%
CC(C)N1CCC2(CC1)OCCN2C(=O)c1c(Cl)cccc1Cl [Compound 26, (2,6-Dichlorophenyl)-(8-isopropyl-1-oxa-4,8-diazaspiro[4.5]decan-4-yl)methanone] | 19 |  | 
CC(C)N1CCCC(NC(=O)c2c(Cl)cccc2Cl)CC1 (centres unmarked) [Compound 23, 2,6-Dichloro-N-(1-isopropylazepan-4-yl)benzamide] | 71 |  | 
CC(C)N1CC[C@H](NC(=O)c2ccc(C(F)(F)F)cc2Cl)[C@H](F)C1 [Compound 32, 2-Chloro-N-((3R,45)-3-fluoro-1-isopropylpiperidin-4-yl)-4-(trifluoromethyl)benzamide] |  |  | EC50 [2]: 263 ± 33 nM; H5N1 pseudotype assay % inhibition at 12.5 μM ([1]; 12.5 μM): 99%; EC50 [1, 6]: 0.63 ± 0.48 µM
CC(C)N1CCC(NC(=O)c2ccc(C(F)(F)F)cc2Cl)CC1 [Compound 5, 2-Chloro-N-(1-isopropylpiperidin-4-yl)-4-(trifluoromethyl)benzamide] | 99 | 380 ± 182 | EC50 [1, 4]: 0.36 ± 0.05 µM
O=C(NC1CCN(C2CCC2)CC1)c1c(Cl)cccc1Cl [Compound 12, 2,6-Dichloro-N-(1-cyclobutylpiperidin-4-yl)benzamide] | 76 |  | 
CC(C)N1CCCC(NC(=O)c2c(Cl)cccc2Cl)C1 (centres unmarked) [Compound 20, 2,6-Dichloro-N-(1-isopropylpiperidin-3-yl)benzamide] | 14 |  | 

Compound | inhibition at 12.5 µM ([1]; Influenza A virus) [%] | EC50 ([2]; Influenza A virus, MDCK) [nM] | further results
O=C(NC1CCN(C2CC2)CC1)c1c(Cl)cccc1Cl [Compound 11, 2,6-Dichloro-N-(1-cyclopropylpiperidin-4-yl)benzamide] | 33 |  | 
CC(C)CN1CCC(NC(=O)c2ccc(C(F)(F)F)cc2Cl)CC1 [Compound 17, 2-Chloro-N-(1-isobutylpiperidin-4-yl)-4-(trifluoromethyl)benzamide] | 73 |  | 
O=C(NC1CCN(C2CCCCC2)CC1)c1ccc(C(F)(F)F)cc1Cl [Compound 18, 2-Chloro-N-(1-cyclohexylpiperidin-4-yl)-4-(trifluoromethyl)benzamide] | 98 | 505 ± 174 | EC50 [1, 4]: 0.91 ± 0.25 µM
CC(C)N1CCC(NC(=O)c2c(Cl)cccc2Cl)C(F)(F)C1 (centres unmarked) [Compound 30, 2,6-Dichloro-N-(3,3-difluoro-1-isopropylpiperidin-4-yl)benzamide] | 77 |  | 
CC(C)N1CC[C@H](NC(=O)c2ccc(C(F)(F)F)cc2Cl)[C@@H](F)C1 [Compound 31, 2-Chloro-N-((3S,45)-3-fluoro-1-isopropylpiperidin-4-yl)-4-(trifluoromethyl)benzamide] |  |  | EC50 [2]: 324 ± 105 nM; H5N1 pseudotype assay % inhibition at 12.5 μM ([1]; 12.5 μM): 93%; EC50 [1, 6]: 1.16 ± 0.67 µM
CO[C@H]1CN(C(C)C)CC[C@H]1NC(=O)c1c(Cl)cccc1Cl [Compound 28, 2,6-Dichloro-N-((3S,4R)-1-isopropyl-3-methoxypiperidin-4-yl)benzamide] | 64 |  | 
CC(C)N1CC[C@H](NC(=O)c2c(Cl)cccc2Cl)[C@@H](F)C1 [Compound 29, 2,6-Dichloro-N-((3S,45)-3-fluoro-1-isopropylpiperidin-4-yl)benzamide] |  |  | EC50 [2]: 885 ± 50 nM; H5N1 pseudotype assay % inhibition at 12.5 μM ([1]; 12.5 μM): 87%; EC50 [1, 6]: 1.81 ± 0.45 µM
CC(C)N1CCC(NC(=O)c2c(Cl)cccc2Cl)C1 (centres unmarked) [Compound 22, 2,6-Dichloro-N-(1-isopropylpyrrolidin-3-yl)benzamide] | 11 |  | 
CC(C)N1CCC(N(C)C(=O)c2c(Cl)cccc2Cl)CC1 [Compound 9, 2,6-Dichloro-N-(1-isopropylpiperidin-4-yl)-N-methylbenzamide] | 91 | 724 ± 36 | EC50 [1, 4]: 4.45 µM
CC(C)N1CC[C@@H](NC(=O)c2ccc(C(F)(F)F)cc2Cl)[C@H](F)C1 [Compound 33, 2-Chloro-N-((3R,4R)-3-fluoro-1-isopropylpiperidin-4-yl)-4-(trifluoromethyl)benzamide] | 87 | 989 ± 323 | EC50 [1, 4]: 2.93 ± 0.3 µM
CC(C)CN1CCC(NC(=O)c2c(Cl)cccc2Cl)CC1 [Compound 14, 2,6-Dichloro-N-(1-isobutylpiperidin-4-yl)benzamide] | 89 | 852 ± 79 | EC50 [1, 4]: 2.15 ± 0.64 µM
CC(C)N1CCC(CNC(=O)c2c(Cl)cccc2Cl)CC1 [Compound 21, 2,6-Dichloro-N-((1-isopropylpiperidin-4-yl)methyl)benzamide] | 23 |  | 
CC(C)N1CC[C@@H](NC(=O)c2ccc(C(F)(F)F)cc2Cl)[C@@H](F)C1 [Compound 34, 2-Chloro-N-((3S,4R)-3-fluoro-1-isopropylpiperidin-4-yl)-4-(trifluoromethyl)benzamide] | 99 | 195 ± 49 | EC50 [1, 4]: 0.67 ± 0.2 µM
CC(C)N1CCC(NC(=O)c2c(Cl)cccc2Cl)CC1 [Compound 1, 2,6-Dichloro-N-(1-isopropylpiperidin-4-yl)benzamide] | 90 | 272 ± 37 | EC50 [1, 4]: 3.04 ± 1.13 µM
CC(C)N1CCC(NS(=O)(=O)c2ccc(Cl)cc2Cl)CC1 [Compound 19, 2,4-Dichloro-N-(1-isopropylpiperidin-4-yl)benzenesulfonamide] | 1 |  | 
CC(C)N1CCC(NC(=O)c2c(Cl)cccc2C(F)(F)F)CC1 [Compound 2, 2-Chloro-N-(1-isopropylpiperidin-4-yl)-6-(trifluoromethyl)benzamide] | 85 | 587 ± 140 | EC50 [1, 4]: 5.62 ± 2.16 µM
CC(C)N1CCC(NC(=O)c2ncc(C(F)(F)F)cc2Cl)CC1 [Compound 7, 3-Chloro-N-(1-isopropylpiperidin-4-yl)-5-(trifluoromethyl)picolinamide] | 76 |  | 
